For experiment [1], the target named is T1, recombinant human colony stimulating factor 1 receptor (FMS) (Homo sapiens, UniProt P07333).
T1 construct: containing the catalytic domain (amino acids 538-910); His tag; purchased Invitrogen; host or cells: insect cells
T1 sequence (P07333 538-910): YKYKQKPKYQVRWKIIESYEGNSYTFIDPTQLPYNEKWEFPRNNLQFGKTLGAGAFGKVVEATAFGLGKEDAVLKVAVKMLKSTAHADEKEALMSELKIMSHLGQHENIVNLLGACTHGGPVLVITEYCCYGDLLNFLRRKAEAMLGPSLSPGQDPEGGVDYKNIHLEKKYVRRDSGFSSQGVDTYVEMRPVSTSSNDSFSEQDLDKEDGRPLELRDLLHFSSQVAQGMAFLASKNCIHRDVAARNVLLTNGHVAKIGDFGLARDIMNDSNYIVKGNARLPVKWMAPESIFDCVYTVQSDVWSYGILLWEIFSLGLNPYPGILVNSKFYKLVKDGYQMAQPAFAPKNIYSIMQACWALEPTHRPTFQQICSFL
Put plainly: Biochemical cFMS (CSF1R) fluorescence polarization kinase assay. The note with it: 10 μM ATP, 100 μM substrate, 60 minutes. Here is the method: Biochemical cFMS (CSF1R) Assay:
Fluorescence polarization-based kinase biochemical assays were performed in 384 well-plate format using histidine tagged recombinant human colony stimulating factor 1 receptor (FMS) supplied from Invitrogen™ (containing the catalytic domain (amino acids 538-910), expressed in insect cells and activated in vitro via auto phosphorylation) and a modified protocol of the KinEASE™ FP Fluorescein Green Assay supplied from Millipore™.
Kinase reactions were performed in 384 well plate format at room temperature for 60 minutes in presence of 100 μM substrate, 10 μM ATP and variable test article concentrations. The reaction was stopped with EDTA/KinEASE™ detection reagents and the polarization measured on a Tecan 500 instrument. From the dose-response curve obtained, the IC50 was estimated using Graph pad Prisms® using a non linear fit curve.

Experiment [2] concerns MV4-11 cells. Briefly: Human MV4-11 biphenotypic B myelomonocytic leukemia cell survival assay. It counts as cell-based. The note with it: cell survival at 72h, Cell Titer-Glo. The procedure:
Human MV4-11 Biphenotypic B Myelomonocytic Leukemia Cell Survival Assay
Biphenotypic B myelomonocytic leukemia MV4-11 cells (ATCC CRL-9591) were cultured in suspension at 37° C., 5% CO2 in complete medium (RPMI supplemented with 10% FBS, 1% penicillin/streptomycin). One day prior to treatment, cells per seeded in 96-well plates at 8000 cells/well in complete medium. The following day, triplicate wells were treated with compound curves of 100, 1000 or 10,000 nM starting concentration according to compound potency. Cell survival was measured 72h later by Cell Titer-Glo Luminescent Assay (Promega). Luminescence was read using a Tecan Infinite F200 microplate reader. EC50 values (50% survival in the presence of compound as compared to vehicle treated controls) were calculated from non-linear fit dose response compound curves using CambridgeSoft BioAssay software (Perkin Elmer).

In experiment [3] the test system is M-NFS-60 M-CSF-dependent myeloid leukemia cells. Put plainly: Murine M-CSF-dependent M-NFS-60 cell survival assay. It counts as cell-based. The note with it: Mus musculus; cell survival at 72 hours, 20 ng/ml M-CSF, Cell Titer-Glo. The procedure:
Cellular Assays: Murine M-CSF-Dependent M-NFS-60 Cell Survival Assay
Murine M-NFS-60 M-CSF-dependent myeloid leukemia cells were purchased from ATCC (CRL-1838). Cells were routinely cultured at 37° C., 5% CO2 in complete medium (RPMI supplemented with 10% FBS, 1% penicillin/streptomycin, 50 uM beta mercaptoethanol) containing 30 ng/ml recombinant murine M-CSF (Peprotech 315-02). For survival assays, cells were transferred to depleted medium (complete medium depleted of M-CSF) for 24 hours prior to initiation of each experiment. M-CSF-starved cells were harvested and re-suspended in complete medium containing 20 ng/ml M-CSF. Cells were seeded at 25,000 cells/well in 96-well plates and incubated for 1 hour at 37° C., 5% CO2. Cells were treated with 1 uM or 10 uM compound curves in triplicate and cell survival was measured 72 hours later by Cell Titer-Glo Luminescent Assay (Promega). Luminescence was read using a Tecan Infinite F200 microplate reader. EC50 values (50% survival in the presence of compound as compared to vehicle treated controls) were calculated from non-linear fit dose response compound curves using GraphPad Prism Software.

On to `Nc1ncnc2c3c(n(-c4ccc(NC(=O)Nc5cccc(F)c5)cc4)c12)CCC3` [Compound 19], for which the IC50 in experiment [1] is less than 100 nM. Besides, the EC50 in experiment [2] is 100 to 1000 nM; in experiment [3] it was less than 100 nM.
Regarding `N#Cc1ccc(NC(=O)Nc2ccc(-n3c4c(c5ncnc(N)c53)CCC4)cc2)cc1` [Compound 65], in experiment [1], the IC50 was more than 1000 nM. Besides, the EC50 in experiment [2] was less than 100 nM; in experiment [3], 100 to 1000 nM.
`Nc1ncnc2c3c(n(-c4ccc(NC(=O)Nc5ccccc5)cc4)c12)CCC3` [Compound 4]: the IC50 in experiment [1] is less than 100 nM. The EC50 in experiment [2] and in experiment [3] was less than 100 nM in each case.
For `C[C@@H](NC(=O)Nc1ccc(-n2c3c(c4ncnc(N)c42)CCC3)cc1)c1ccccc1` [Compound 45], in experiment [1], the IC50 fell in the range of 100 to 1000 nM. Also, the EC50 in experiment [2] was less than 100 nM; in experiment [3], 100 to 1000 nM.
Turning to `Cc1ccc(F)c(NC(=O)Nc2ccc(-n3c4c(c5ncnc(N)c53)COC4)cc2)c1` [Compound 47], in experiment [1], the IC50 is 100 to 1000 nM. Besides, the EC50 in experiment [2] and in experiment [3] was less than 100 nM each time.
With `Nc1ncnc2c3c(n(-c4ccc(NC(=O)c5ccccc5)cc4)c12)CCC3` [Compound 10], the IC50 in experiment [1] was more than 1000 nM. Moreover, the EC50 in experiment [2] and in experiment [3] was more than 1000 nM throughout.
For the compound `CCNC(=O)Nc1ccc(-n2c3c(c4ncnc(N)c42)CCC3)cc1` [Compound 9], in experiment [1], the IC50 is more than 1000 nM. Also, the EC50 in experiment [2] is 100 to 1000 nM; in experiment [3], more than 1000 nM.
As for `Nc1ncnc2c3c(n(-c4ccc(NC(=O)Nc5cccc(C(F)(F)F)c5)c(F)c4)c12)CCC3` [Compound 63], the IC50 in experiment [1] was in the range of 100 to 1000 nM. In addition, the EC50 in experiment [2] and in experiment [3] was less than 100 nM throughout.
As to `Nc1ncnc2c3c(n(-c4ccc(NC(=O)NCc5ccccc5)cc4)c12)CCC3` [Compound 30], the IC50 in experiment [1] was 100 to 1000 nM. In addition, the EC50 in experiment [2] is less than 100 nM; in experiment [3] it was 100 to 1000 nM.
Consider `Nc1ncnc2c3c(n(-c4ccc(NC(=O)Nc5ccccc5F)cc4)c12)CCC3` [Compound 39], for which the IC50 in experiment [1] was 100 to 1000 nM. Moreover, the EC50 is 100 to 1000 nM in experiment [2] and less than 100 nM in experiment [3].
As for `Nc1ncnc2c3c(n(-c4ccc(NC(=O)NC5CCCCC5)cc4)c12)CCC3` [Compound 41], the IC50 in experiment [1] was 100 to 1000 nM. The EC50 in experiment [2] is less than 100 nM; in experiment [3], 100 to 1000 nM.
For `COc1ccc(NC(=O)Nc2ccc(-n3c4c(c5ncnc(N)c53)CCC4)cc2)cc1C(F)(F)F` [Compound 55], in experiment [1], the IC50 lay within 100 to 1000 nM. Besides, the EC50 was less than 100 nM in experiment [2] and 100 to 1000 nM in experiment [3].
As to `Nc1ncnc2c3c(n(-c4ccc(NC(=O)Nc5cccc(Cl)c5)cc4)c12)CCC3` [Compound 20], the IC50 in experiment [1] fell in the range of 100 to 1000 nM. Besides, the figures for the EC50 in experiment [2] and in experiment [3] were 100 to 1000 nM and less than 100 nM, respectively.
For `Nc1ncnc2c3c(n(-c4ccc(NC(=O)Nc5ccc(F)cc5F)cc4)c12)CCC3` [Compound 50], in experiment [1], the IC50 is 100 to 1000 nM. The EC50 in experiment [2] and in experiment [3] was less than 100 nM throughout.
In the case of `Nc1ncnc2c3c(n(-c4ccc(NC(=O)Nc5ccc(F)cc5)cc4)c12)COC3` [Compound 33], the IC50 in experiment [1] lay within 100 to 1000 nM. Further, the EC50 in experiment [2] and in experiment [3] was 100 to 1000 nM each time.
Take `Nc1ncnc2c3c(n(-c4ccc(NS(=O)(=O)c5ccccc5)cc4)c12)CCC3` [Compound 3]: the IC50 in experiment [1] was more than 1000 nM. The EC50 in experiment [2] and in experiment [3] was more than 1000 nM throughout.
Consider `Nc1ncnc2c3c(n(-c4ccc(NC(=O)Nc5cc(C(F)(F)F)ccc5Cl)cc4)c12)CCC3` [Compound 69], for which the IC50 in experiment [1] fell in the range of 100 to 1000 nM. Besides, the EC50 in experiment [2] was less than 100 nM; in experiment [3] it was 100 to 1000 nM.
Consider `COc1ccccc1NC(=O)Nc1ccc(-n2c3c(c4ncnc(N)c42)CCC3)cc1` [Compound 16], for which the IC50 in experiment [1] is 100 to 1000 nM. Moreover, the EC50 in experiment [2] and in experiment [3] was less than 100 nM each time.
In the case of `Nc1ncnc2c3c(n(-c4ccc(NC(=O)Nc5ccc(C(F)(F)F)cc5)cc4)c12)CCC3` [Compound 21], the half-maximal inhibitory concentration (IC50) in experiment [1] fell in the range of 100 to 1000 nM. Moreover, the EC50 was 100 to 1000 nM in experiment [2] and less than 100 nM in experiment [3].
Regarding `Nc1ncnc2c3c(n(-c4ccc(NC(=O)Nc5ccc6c(c5)OCO6)cc4)c12)CCC3` [Compound 28], the IC50 in experiment [1] is less than 100 nM. Moreover, the EC50 in experiment [2] and in experiment [3] was less than 100 nM throughout.
Turning to `Nc1ncnc2c3c(n(-c4ccc(NC(=O)Nc5cccc(C(F)(F)F)c5)cc4)c12)CCC3` [Compound 17], in experiment [1], the IC50 was in the range of 100 to 1000 nM. The EC50 in experiment [2] and in experiment [3] was less than 100 nM in each case.
For the compound `N#Cc1cccc(NC(=O)Nc2ccc(-n3c4c(c5ncnc(N)c53)CCC4)cc2)c1` [Compound 66], the IC50 in experiment [1] was in the range of 100 to 1000 nM. Also, the EC50 in experiment [2] is less than 100 nM; in experiment [3], 100 to 1000 nM.
Regarding `Nc1ncnc2c3c(n(-c4ccc(NC(=O)Nc5cccc(C(F)(F)F)c5)cc4)c12)COC3` [Compound 48], in experiment [1], the IC50 was less than 100 nM. In addition, the concentration giving a half-maximal response (EC50) in experiment [2] was less than 100 nM; in experiment [3], 100 to 1000 nM.

The record behind these values is patent US9284318B2, “Protein kinase inhibitors” (Pharmascience, Inc., priority 2011, dated 2016).
